This note sets out measurements from patent publication US20240423977A1, “FIVE-MEMBERED RING-FUSED SIX-MEMBERED RING COMPOUND, PREPARATION METHOD THEREFOR, AND PHARMACEUTICAL COMPOSITION AND USE THEREOF” (HANGZHOU POLYMED BIOPHARMACEUTICALS, INC., priority 2022, published 2024).

One test concerns the target kinase IRAK4 (Homo sapiens (Human), UniProt Q9NWZ3). The test is described as follows: Inhibitory effects of compounds on kinase activity (fluorescence microfluidic mobility detection, competitive with ATP). It counts as biochemical. Conditions: IRAK4 6 nM, ATP 10 μM. As to the method: Based on an experimental method of fluorescence microfluidic mobility detection, an IC50 value of competitive binding of kinase IRAK4 to ATP by the compounds was determined. The initial detection concentration of the compounds was 10 μM, diluted 4-fold gradient down to […], and tested in duplicate. Among them, commercial staurosporine was the standard control substance in this experiment.
1) IRAK4 kinase was dissolved in kinase buffer (50 mM HEPES pH 7.5, 10 mM MgCl2, 2 mM DTT and 0.01% Brij-35) to a final concentration of 6 nM.
2) The substrate peptide FAM-P8 and ATP were dissolved in the above kinase buffer. The final concentrations of the IRAK4 substrate peptide FAM-P8 and ATP were 3 μM and 10 μM respectively.
3) Dilution of the compounds: the compound was first diluted to 50 μM, and then diluted down with a 4-fold gradient of DMSO. The solution without the compound and kinase is used as a blank control, corresponding to the “minimum value” shown below; and the solution without the compound but with kinase, adenosine 5′-triphosphate disodium salt hydrate, DMSO and buffer is used as a positive control, corresponding to the “maximum value” shown below. 4) Kinase reaction and termination: 10 μL of kinase buffer was added to a 384-well plate containing 5 μL of the compound to be tested, and incubated at room temperature for 10 minutes. Another 10 μL of buffer containing the substrate peptide and adenosine 5′-triphosphate disodium salt hydrate was added to the 384-well plate. After incubation at 28° C. for one hour, 25 μL stop solution (100 mM HEPES pH 7.5, 50 mM EDTA, 0.2% Coating Reagent #3 and 0.015% Brij-35) was added to each well to terminate the reaction.
5) Data reading: the CaliperEZ Reader II instrument was used to read the conversion rate data. Conditions: downstream voltage −500V, upstream voltage −2250V, base pressure −0.5 PSI, and screening pressure −1.2 PSI.
6) Data calculation: the conversion rate data was copied from CaliperEZ Reader II and converted into inhibition rate data. The calculation formula is as follows:
[formula] • IC50 values were fitted using XLFit excel add-in version 5.4.0.8,
Y=Bottom+(Top−Bottom)/(1+(IC50/X)^HillSlope) Fitting formula: […]

Test [1] has as its target IRAK4 protein in THP-1 cells (Homo sapiens (Human), UniProt Q9NWZ3). Nature of the test: PROTAC-induced IRAK4 protein degradation in THP-1 cells (Western Blot). It counts as cell-based. Conditions: for DC50: concentration that degraded 50% of IRAK4, Western blotting, 24 hours after administration. The method, then:
2.1 Based on the experimental method of Western Blot, specific antibodies were used to stain the THP-1 cell samples treated by gel electrophoresis, and the degrading activity of the compounds on the IRAK4 protein in THP-1 cells was determined by analyzing the position and depth of staining. The concentrations of compound for the detection included 0 μM, 0.3 μM, 1 μM and 3 μM, and the cells were treated by the compound for 8 hours, 16 hours, 24 hours, and 48 hours. Glyceraldehyde-3-phosphate dehydrogenase (GAPDH) is an internal reference protein in this experiment.
Electrophoresis buffer: 50 mL MOPS SDS Running Buffer (20×) and 50 mL 20×TBS Tween-20 buffer were diluted with deionized water to 1 L as the electrophoresis buffer;
5% skim milk (w/v): 2.5 g skim milk was diluted with 50 mL 1×TBS Tween-20 buffer to prepare 5% skim milk;
5% BSA (w/v): 2.5 g BSA was diluted with 50 mL 1×TBS Tween-20 buffer to prepare 5% BSA;
Anti-IRAK4 antibody was diluted with 5% BSA at 1:1000 into a primary antibody working solution;
Goat Anti-Rabbit IgG H&L (HRP) was diluted with 5% BSA at 1:2000 into a second antibody working solution; and
Goat Anti-Mouse IgG H&L (HRP) was diluted with 5% BSA at 1:2000 into a second antibody working solution.
THP-1 cells were plated in a 6-well plate at a density of 1.5×10^6 cells per ml and incubated for 2 hours in a cell culture incubator under 37° C. and 5% CO2. The compound was diluted with DMSO to 0.6 mM, 0.2 mM and 0.06 mM respectively. 10 μL of compound solution was added to the corresponding wells, and continued to incubate in the incubator for 16 hours, 24 hours and 48 hours respectively. The compound-treated THP-1 cells in the well were collected, added with 120 μL of RIPA lysate containing protease inhibitor, Phosphatase Inhibitor Cocktail 2 and Phosphatase Inhibitor Cocktail 3, lysed on wet ice for 30 minutes, and then the cells lysate was centrifuged at a high speed and a low temperature for 5 minutes to collect the supernatant. The protein concentration of the cell sample was determined according to the instructions in the Pierce™ BCA Protein Assay Kit.
The concentration of the sample was adjusted to be consistent using lysis buffer and NuPAGE® LDS sample buffer containing 1M DTT. The samples were heated at 95° C. for 5 minutes and centrifuged at a low temperature and at a high speed. 20 μL of the prepared protein sample and 4 μL of PageRuler Prestained Protein Ladder were added into the gel well for running at 80V voltage for 0.5 hours, then the voltage was adjusted to 120V for further running for 1.5 hours. The gel was removed and the proteins in the gel were transferred to the IBlotTM 2 transfer membrane set at 20V. After successful transfer, bands at 65 kDa-40 kDa and 40 kDa-30 kDa were cut respectively. The membranes were blocked with 5% skim milk for 1 hour at room temperature. The membranes were washed three times with 1× concentration of TBST, then incubated with IRAK4 antibody working solution overnight at 4° C. The IRAK4 antibody working solution was discarded, and the membranes were washed three times with 1×concentration of TBST, and incubated with Goat Anti-Rabbit IgG H&L (HRP) working solution and Goat Anti-Mouse IgG H&L (HRP) working solution at room temperature. After 1 hour of incubation, the antibody working solution was discarded and the membranes were washed three times with 1× concentration of TBST. According to the instructions of the kit SuperSignal™ West Femto Maximum Sensitivity Substrate, the reagents in the kit were mixed in equal volume proportions to prepare a luminescent liquid mixture. The membranes were incubated for 1 minute, then removed for exposure.
The results of Western blotting 24 hours after administration of the compounds with a concentration of 1 μM were shown in Table 3: […]
Background: In western blotting, separated proteins are transferred to a membrane and probed.

IRAK4 protein in THP-1 cells, sequence (Q9NWZ3 whole entry): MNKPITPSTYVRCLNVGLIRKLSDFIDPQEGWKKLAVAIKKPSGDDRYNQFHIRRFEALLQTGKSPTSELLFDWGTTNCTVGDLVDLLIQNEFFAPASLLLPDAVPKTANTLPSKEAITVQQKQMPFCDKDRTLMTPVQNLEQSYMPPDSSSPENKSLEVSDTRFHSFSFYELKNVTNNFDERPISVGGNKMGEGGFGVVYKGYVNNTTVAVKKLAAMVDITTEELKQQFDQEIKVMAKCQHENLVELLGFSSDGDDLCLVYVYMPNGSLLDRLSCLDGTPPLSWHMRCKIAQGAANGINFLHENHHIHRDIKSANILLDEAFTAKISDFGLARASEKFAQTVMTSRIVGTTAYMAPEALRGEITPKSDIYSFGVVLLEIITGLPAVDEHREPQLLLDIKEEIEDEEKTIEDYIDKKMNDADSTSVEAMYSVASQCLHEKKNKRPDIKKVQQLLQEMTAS
kinase IRAK4, sequence (Q9NWZ3 whole entry): as above

Turning to `COc1cc2nn(C3CC4(CCN(c5cnn(C6CCN(c7ccc8c(c7)C(=O)N(C7CCC(=O)NC7=O)C8=O)CC6)c5)CC4)C3)cc2cc1NC(=O)c1cccc(C(F)(F)F)n1` (stereo not drawn) [Compound I-32], at kinase IRAK4 (Table 2, substrate FAM-P8 3 μM), the IC50 (commonly the concentration at which inhibition is half-maximal) came to 34.8 nM. Besides, it took 33.8 nM to reach half-maximal degradation in test [1] (DC50).

`COc1cc2nn(C3CC4(CCN(C(=O)C5CCN(c6ccc7c(c6)C(=O)N([C@H]6CCC(=O)NC6=O)C7=O)CC5)CC4)C3)cc2cc1NC(=O)c1cccc(C(F)(F)F)n1` [Compound I-57] showed an IC50 at kinase IRAK4 (Table 2, substrate FAM-P8 3 μM) of 32.4 nM. Further, the DC50 (commonly the concentration giving 50% degradation) in test [1] worked out at 12.2 nM.

`COc1cc2nn(C3CC4(CCN(C(=O)C5CCC6(CC5)CN(c5ccc7c(c5)C(=O)N(C5CCC(=O)NC5=O)C7=O)C6)CC4)C3)cc2cc1NC(=O)c1cccc(C(F)(F)F)n1` (stereo not drawn) [Compound I-26]: the IC50 at kinase IRAK4 (Table 2, substrate FAM-P8 3 μM) is 30 nM. This compound displayed a DC50 in test [1] of 44.6 nM.

With `COc1cc2nn(C3CC4(CCN(C(=O)C5CCN(c6ccc7c(c6)C(=O)N([C@@H]6CCC(=O)NC6=O)C7=O)CC5)CC4)C3)cc2cc1NC(=O)c1cccc(C(F)(F)F)n1` [Compound I-66], the half-inhibitory concentration (IC50) on kinase IRAK4 (Table 2, substrate FAM-P8 3 μM) stood at 25.3 nM. The 50% degradation concentration (DC50) in test [1] turned out to be 3.14 nM.

Compound `COc1cc2nn(C3CC4(CCN(C(=O)[C@H]5CC[C@H](C(=O)N[C@H](C(=O)N6C[C@H](O)C[C@H]6C(=O)N[C@@H](C)c6ccc(-c7scnc7C)cc6)C(C)(C)C)CC5)CC4)C3)cc2cc1NC(=O)c1cccc(C(F)(F)F)n1` [Compound I-29] came in with a half-inhibitory concentration (IC50) at kinase IRAK4 (Table 2, substrate FAM-P8 3 μM) of 74 nM. This compound had a 50% degradation concentration (DC50) in test [1] of 16.3 nM.

`COc1cc2nn(C3CCC4(CC3)CN(C(=O)C3CCN(c5ccc6c(c5)C(=O)N(C5CCC(=O)NC5=O)C6=O)CC3)C4)cc2cc1NC(=O)c1cccc(C(F)(F)F)n1` (stereo not drawn) [Compound I-19] gave an IC50 on kinase IRAK4 (Table 2, substrate FAM-P8 3 μM) of 8.1 nM. Moreover, the half-maximal degradation concentration (DC50) in test [1] came to 1.78 nM.

Regarding `COc1cc2nn(C3CC4(CCN(CC5CCN(c6ccc7c(c6)C(=O)N(C6CCC(=O)NC6=O)C7=O)CC5)CC4)C3)cc2cc1NC(=O)c1cccc(C(F)(F)F)n1` (stereo not drawn) [Compound I-13], the IC50 at kinase IRAK4 (Table 1, class symbols) was less than 100 nM; on kinase IRAK4 (Table 2, substrate FAM-P8 3 μM) it was 4.81 nM. Moreover, in test [1], the half-maximal degradation concentration (DC50) came to 15.8 nM.

`COc1cc2nn(C3CC4(CCN(C(=O)C5CCN(c6ccc7c(c6)C(=O)N(C6CCC(=O)NC6=O)C7=O)CC5)CC4)C3)cc2cc1NC(=O)c1cccc(N2CC3CC2CO3)n1` (stereo not drawn) [Compound I-52]: at kinase IRAK4 (Table 2, substrate FAM-P8 3 μM), the IC50 stood at 13.3 nM. In test [1], this compound came in with a half-maximal degradation concentration (DC50) of 3.9 nM.

Consider `COc1cc2nn(C3CC4(CCN(C(=O)C5CCN(c6ccc7c(c6)C(=O)N(C6CCC(=O)NC6=O)C7=O)CC5)CC4)C3)cc2cc1NC(=O)c1cccc(N2CCOCC2)n1` (stereo not drawn) [Compound I-41], for which the IC50 on kinase IRAK4 (Table 2, substrate FAM-P8 3 μM) is 49.8 nM. Moreover, half-maximal degradation in test [1] (DC50) was put at 4.42 nM.

On to `COc1cc2nn(C3CC4(CCN(C(=O)C5(F)CCN(c6ccc7c(c6)C(=O)N(C6CCC(=O)NC6=O)C7=O)CC5)CC4)C3)cc2cc1NC(=O)c1cccc(C(F)(F)F)n1` (stereo not drawn) [Compound I-34], for which the IC50 at kinase IRAK4 (Table 2, substrate FAM-P8 3 μM) turned out to be 39.7 nM. In addition, it took 22.7 nM to reach half-maximal degradation in test [1] (DC50).

Turning to `COc1cc2nn(C3CC4(CCN(C(=O)C5CCN(c6ccc7c(c6)C(=O)N(C6CCC(=O)NC6=O)C7=O)CC5(F)F)CC4)C3)cc2cc1NC(=O)c1cccc(N2CCOCC2)n1` (stereo not drawn) [Compound I-55], the IC50 on kinase IRAK4 (Table 2, substrate FAM-P8 3 μM) came out at 34.3 nM. The DC50 in test [1] stood at 14.6 nM.

For `COc1cc2nn(C3CCN(C4CCN(C(=O)c5ccc6c(c5)C(=O)N(C5CCC(=O)NC5=O)C6=O)CC4)CC3)cc2cc1NC(=O)c1cccc(C(F)(F)F)n1` (stereo not drawn) [II-17], the half-maximal inhibitory concentration (IC50) at kinase IRAK4 (Table 1, class symbols) is less than 100 nM; at kinase IRAK4 (Table 2, substrate FAM-P8 3 μM), 11 nM. Moreover, the “IRAK4 degradation rate 24 hours after administration of the compounds with a concentration of 1 μM” value in test [1] (Western blotting, 1 μM, 24 hours) is less than 25%. Also, the DC50 in test [1] was greater than 1000 nM.

`COc1cc2nn([C@H]3C[C@@H]4CN(C(=O)C5CCN(c6ccc7c(c6)C(=O)N(C6CCC(=O)NC6=O)C7=O)CC5)C[C@@H]4C3)cc2cc1NC(=O)c1cccc(C(F)(F)F)n1` (stereo partly drawn) [Compound I-28] displayed a half-maximal inhibitory concentration (IC50) on kinase IRAK4 (Table 2, substrate FAM-P8 3 μM) of 12.5 nM. Also, it took 8.3 nM to reach half-maximal degradation in test [1] (DC50).

On to `COc1cc2c(cnn2C2CC3(CCC(C(=O)N4CCN(c5ccc6c(c5)C(=O)N(C5CCC(=O)NC5=O)C6=O)CC4)CC3)C2)cc1NC(=O)c1cccc(C(F)(F)F)n1` (stereo not drawn) [Compound I-56], for which the IC50 at kinase IRAK4 (Table 2, substrate FAM-P8 3 μM) was 1960 nM.
